Assay [1] concerns the target T1, melanocortin MC-4 receptor (Homo sapiens, UniProt P32245).
T1 construct: purchased Receptor Biology Inc
The experiment in a line: Melanocortin MC-4 Receptor Binding Assay (SPA). As to the method: Melanocortin MC-4 Receptor Binding Assay Melanocortin [MC-4]-membrane [purchased from Receptor Biology Inc] was coupled to wheat germ agglutinin coated polyvinyl toluene-Scintillation Proximity Assay beads [purchased from Amersham Pharmacia Inc.] for 30 min at 25° C. Into each well of a 96-well Opti plate [purchased from Packard, Calif.], 2.5 μg of membrane and 0.25 mg of beads were mixed in a volume of 100 μL media. […] Test compounds (1.5 μL) at 1 mM in 30% DMSO-50 mM HEPES, pH 7.4 buffer was added to separate wells on the plate. Radioactive ligand ^125I-NDP-melanocyte stimulating hormone [NEN, 2000Ci/mmol] was added to each well (48.5 μL per well, 40 pM final concentration). The plate was then sealed and let stand for 16 hr at 25° C. NDP-Melanocyte stimulating hormone peptide and α-melanocyte stimulating hormone peptide [purchased from Palomar Research Inc, 1 μM] were used as reference inhibitor compounds to define non-specific binding (N). Total binding (T) was defined using 30% DMSO-50 mM HEPES, pH 7.4 buffer. Bound radioactivity for each well (Y), measured at counts per minute (cpm) was measured in a TopCount [Packard, Calif.]. Percent inhibition was calculated as: […] The procedures described above for the melanocortin MC-4 receptor were repeated for the melanocortin MC-3 receptor. Following the procedures described, representative compounds of the present invention were tested for binding in the MC-4 and/or MC-3 assay, as listed in Table 4.

The subject of assay [2] is Hippocampal Cells. The experiment in a line: Neurite Cell Outgrowth Assay, hippocampal cells. The class given is cell-based. The note with it: Rattus norvegicus; 50 nM; percent change over the vehicle response; NA = no change/not active. The source says:
(§1) Dissociated hippocampal and cortical cell cultures were established from embryonic day 18 rat fetuses as described by Mattson, M. P., Barger, S. W., Begley, J, and Mark, R. J., Methods Cell Biol., 1994, 46:[…]. Briefly, fetuses were removed via cesarean section from pregnant moms (Sprague-Dawley) and anesthetized with halothane according to the AVMA Panel on Euthanasia. Pups were decapitated and the brains were removed and placed in HEPES-buffered Hank's Balanced Salt solution (HBSS; Gibco). The hippocampi and cortices were dissected out and pooled according to tissue-type. Tissue was trypsinized for 15 min (1 mg/ml trypsin-HBSS; Worthington), rinsed with fresh HBSS, incubated in trypsin inhibitor (1 mg/ml; Sigma) for 5 min, rinsed again with fresh HBSS and then triturated in 1 ml fresh HBSS with a fire-polished glass pipette. Dissociated cells were seeded at 30,000 cells/well onto poly-D-lysine coated 96-well plates (Collaborative BioScience). Each well contained 100 μl of Eagle's Minimal Essential Media (MEM; Gibco) supplemented with 26 mM NaHCO3 (Sigma), 56 mM glucose (Sigma), 15 mM KCl (Sigma), 1 mM sodium pyruvate (Sigma), 1.1 mM L-glutamine (Sigma), 10% (v/v) heat-inactivated fetal bovine serum (Hyclone), and 0.001% gentamicin sulfate (Sigma) (pH 7.4). Cells were allowed to attach for 24 h in a humidified 37° C. 5% CO2 incubator before experimental treatment. The culture media was aspirated and exchanged with fresh media every 3 days.
(§2) Twenty-four hours after plating, cultures were treated with vehicle (PBS+0.1% BSA), alpha-melanocyte stimulating hormone (α-MSH) or test compound (diluted in DPBS). Each treatment condition was run in quadruplicate. On the third day in culture, the media was aspirated off and replaced with fresh media and test compound. At one week in culture, the cells were fixed with 10% phosphate-buffered formalin for 15 min, then rinsed with DPBS (Sigma) and placed in blocking serum for 30 min (horse serum; 1:50 dilution in DPBS; Vector Labs). The cultures were rinsed again with DPBS and then incubated in primary antibody for 2 hr (microtubule-associated protein-2 (MAP-2) is a selective marker for dendritic processes; anti-mouse monoclonal (Chemicon); 1:1000 dilution of MAP-2 in antibody diluent (Zymed)). Negative control wells were incubated in antibody diluent alone. Background signal was determined by blank wells (cell-free) incubated with or without antibody. Cultures were rinsed again with DPBS and then placed in fluorescein for 1 hr (FITC; anti-mouse IgG; rat adsorbed; 1:50 dilution in DPBS; Vector Labs). Cultures were rinsed a final time with DPBS and the plates were then read on a Cytofluor 4000 fluorescence plate reader. Neurite outgrowth was expressed as percent change from control (vehicle).
(§3) The data are expressed as percent change over the vehicle response. All compounds were screened at 50 nM. The abbreviation NA indicates no change/not active; the abbreviation ND indicates a compound not tested/response not determined.

In assay [3] the test system is Cortical Cells. The experiment in a line: Neurite Cell Outgrowth Assay, cortical cells. The note with it: Rattus norvegicus; 50 nM; percent change over the vehicle response; NA = no change/not active. The class given is cell-based.
Source text: as §1, §2, §3

This is an account of results in patent US7049331B2, “1,2,4-thiadiazole derivatives as melanocortin receptor modulators” (Ortho-McNeil Pharmaceutical, Inc., priority 2001, dated 2006).

SMILES strings stand for the structures.

T1 sequence (P32245 whole entry): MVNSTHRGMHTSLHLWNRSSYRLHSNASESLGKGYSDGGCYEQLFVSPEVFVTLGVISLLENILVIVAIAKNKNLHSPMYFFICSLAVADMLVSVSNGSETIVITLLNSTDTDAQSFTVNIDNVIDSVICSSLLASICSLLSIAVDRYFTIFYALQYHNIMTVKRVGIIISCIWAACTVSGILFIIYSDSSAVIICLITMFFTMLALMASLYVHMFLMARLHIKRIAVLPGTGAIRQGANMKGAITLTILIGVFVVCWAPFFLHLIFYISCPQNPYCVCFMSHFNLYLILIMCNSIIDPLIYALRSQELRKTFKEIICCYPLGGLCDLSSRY

In turn, `COc1ccccc1-c1nc(Nc2ccc(C)cc2)s[n+]1-c1ccccc1OC` [Compound 77] returned a 50% inhibitory concentration (IC50) in assay [1] of 4.4 nM.
As for `COc1ccc(-c2nc(Nc3ccc(Cl)cc3)s[n+]2-c2ccc(OC)cc2)cc1` [Compound 62], the “IC50 MC-4 (nM) (SPA)” value in assay [1] is “inactive”. Also, the activation at 0.05 µM in assay [2] and in assay [3] was 13% throughout.
With `Cc1ccccc1CNc1nc(-c2ccccc2)[n+](-c2ccccc2)s1` [Compound 54], in assay [1], the 50% inhibitory concentration (IC50) was 800 nM. This molecule returned an activation at 0.05 µM in assay [2] of 45%.
In turn, `COc1ccc(Nc2nc(-c3ccccc3)[n+](-c3ccc(OC)cc3)s2)cc1` [Compound 36] displayed a half-inhibitory concentration (IC50) in assay [1] of 79 nM. The molecule further came in with an activation at 0.05 µM in assay [3] of 16%.
In the case of `COc1ccc(Nc2nc(-c3ccc(OC)cc3)[n+](-c3ccc(OC)cc3)s2)cc1` [Compound 58], the “IC50 MC-4 (nM) (SPA)” value in assay [1] was “inactive”. Moreover, the results for the activation at 0.05 µM in assay [2] and in assay [3] were 72% and 10%, respectively.
As for `COc1ccc(-[n+]2sc(Nc3ccccc3C)nc2-c2ccccc2)cc1` [Compound 39], in assay [1], the half-inhibitory concentration (IC50) came out at 146 nM.
`Clc1ccccc1CNc1nc(-c2ccccc2)[n+](-c2ccccc2)s1` [Compound 56] displayed a concentration for half-maximal inhibition (IC50) in assay [1] of 3000 nM. In addition, the activation at 0.05 µM in assay [2] is 33%.
`COc1ccccc1-[n+]1sc(Nc2ccccc2Cl)nc1-c1ccc(C)cc1` [Compound 71] yielded a half-maximal inhibitory concentration (IC50) in assay [1] of 234 nM.
Regarding `c1ccc(Nc2nc(-c3ccccc3)[n+](-c3ccccc3)s2)cc1` [Compound 22], the IC50 in assay [1] came out at 124 nM. In assay [3], this molecule yielded an activation at 0.05 µM of 30%.
On to `COc1ccc(-[n+]2sc(Nc3ccc(Cl)cc3)nc2-c2ccccc2)cc1` [Compound 40], for which, in assay [1], the IC50 came out at 133 nM. The same molecule registered an activation at 0.05 µM in assay [2] of 26%.
In turn, `COc1ccc(-c2nc(Nc3ccccc3Cl)s[n+]2-c2ccc(OC)cc2)cc1` [Compound 63] displayed an IC50 in assay [1] of 1000 nM. Further, the figures for the activation at 0.05 µM in assay [2] and in assay [3] were 20% and 17%, respectively.
On to `Cc1ccc(Nc2nc(-c3ccccc3)[n+](-c3ccccc3)s2)cc1` [Compound 25], for which the half-inhibitory concentration (IC50) in assay [1] turned out to be 57 nM. Moreover, the activation at 0.05 µM in assay [3] worked out at 23%.
Take `Clc1ccc(Nc2nc(-c3ccccc3)[n+](-c3ccccc3Cl)s2)cc1` [Compound 47]: in assay [1], the half-inhibitory concentration (IC50) is 874 nM. Further, the activation at 0.05 µM in assay [2] came to 20%; in assay [3], 13%.
As to `COc1ccccc1-[n+]1sc(Nc2ccc(C)cc2)nc1-c1ccc(C)cc1` [Compound 68], the IC50 in assay [1] is 110 nM.
Take `COc1ccccc1Nc1nc(-c2ccccc2)[n+](-c2ccccc2Cl)s1` [Compound 44]: in assay [1], the IC50 is 89 nM. Besides, the activation at 0.05 µM in assay [2] was found to be 43%; in assay [3], 19%.
For the molecule `COc1ccccc1CNc1nc(-c2ccccc2)[n+](-c2ccccc2)s1` [Compound 52], the IC50 in assay [1] came to 1000 nM. In assay [2], the activation at 0.05 µM was 65%.
In the case of `Clc1ccccc1Nc1nc(-c2ccccc2)[n+](-c2ccccc2Cl)s1` [Compound 48], in assay [1], the IC50 came out at 444 nM. For the same molecule, the activation at 0.05 µM in assay [3] came to 19%.
For `COc1ccc(-c2nc(Nc3ccccc3C)s[n+]2-c2ccc(OC)cc2)cc1` [Compound 61], in assay [1], the “IC50 MC-4 (nM) (SPA)” value is “inactive”. Also, the values for the activation at 0.05 µM in assay [2] and in assay [3] were 66% and 17%, respectively.
In assay [1], `Cc1ccccc1Nc1nc(-c2ccccc2)[n+](-c2ccccc2Cl)s1` [Compound 46] registered a half-inhibitory concentration (IC50) of 368 nM. Besides, the results for the activation at 0.05 µM in assay [2] and in assay [3] were 40% and 19%, respectively.
For the molecule `COc1ccccc1-c1nc(Nc2ccc(Cl)cc2)s[n+]1-c1ccccc1OC` [Compound 79], the IC50 in assay [1] was determined as 216 nM.
In assay [1], `COc1ccccc1-[n+]1sc(Nc2ccc(Cl)cc2)nc1-c1ccccc1` [Compound 33] displayed a half-inhibitory concentration (IC50) of 91 nM. Besides, the activation at 0.05 µM in assay [3] worked out at 21%.
In the case of `COc1ccccc1-c1nc(Nc2ccccc2C)s[n+]1-c1ccccc1OC` [Compound 78], the half-maximal inhibitory concentration (IC50) in assay [1] worked out at 99 nM.
On to `COc1ccc(-c2nc(Nc3ccccc3OC)s[n+]2-c2ccc(OC)cc2)cc1` [Compound 59], for which the “IC50 MC-4 (nM) (SPA)” value in assay [1] was “inactive”. Moreover, the activation at 0.05 µM in assay [2] was 61%; in assay [3], 21%.
Consider `COc1ccccc1-[n+]1sc(Nc2ccccc2C)nc1-c1ccc(C)cc1` [Compound 69], for which, in assay [1], the IC50 amounted to 139 nM.
In the case of `Cc1ccc(Nc2nc(-c3ccccc3)[n+](-c3ccccc3Cl)s2)cc1` [Compound 45], the half-inhibitory concentration (IC50) in assay [1] was determined as 246 nM. The figures for the activation at 0.05 µM in assay [2] and in assay [3] were 46% and 25%, respectively.
The like results for `COc1ccc(Nc2nc(-c3ccccc3)[n+](-c3ccccc3Cl)s2)cc1` [Compound 43] were, in that order, 237 nM, 30% and 37%.
The like results for `COc1ccc(Nc2nc(-c3ccccc3)[n+](-c3ccccc3)s2)cc1` [Compound 23] were, in that order, 124 nM, 10% and 20%.
For the molecule `COc1ccccc1-[n+]1sc(Nc2cccnc2)nc1-c1ccc(C)cc1` [Compound 72], the IC50 in assay [1] is 155 nM.
In assay [1], `Cc1ccc(CNc2nc(-c3ccccc3)[n+](-c3ccccc3)s2)cc1` [Compound 53] returned an IC50 of 1000 nM. The molecule also registered an activation at 0.05 µM in assay [2] of 67%.
With `COc1ccc(Nc2nc(-c3ccc(C)cc3)[n+](-c3ccccc3OC)s2)cc1` [Compound 66], the half-inhibitory concentration (IC50) in assay [1] came to 120 nM.
Consider `COc1ccc(-[n+]2sc(Nc3ccc(C)cc3)nc2-c2ccccc2)cc1` [Compound 38], for which the IC50 in assay [1] amounted to 159 nM.
`Clc1ccc(CNc2nc(-c3ccccc3)[n+](-c3ccccc3)s2)cc1` [Compound 55] returned a concentration for half-maximal inhibition (IC50) in assay [1] of 800 nM. In assay [2], the activation at 0.05 µM stood at 19%.
Molecule `COc1ccc(-[n+]2sc(Nc3ccccc3)nc2-c2ccccc2)cc1` [Compound 35] came in with an IC50 in assay [1] of 100 nM. Also, the activation at 0.05 µM in assay [3] worked out at 28%.
`Clc1ccccc1-[n+]1sc(Nc2ccccc2)nc1-c1ccccc1` [Compound 42]: the IC50 in assay [1] amounted to 482 nM. In assay [2], this molecule displayed an activation at 0.05 µM of 26%.
In assay [1], `COc1ccccc1Nc1nc(-c2ccccc2)[n+](-c2ccccc2OC)s1` [Compound 30] gave an IC50 of 103 nM.
With `COc1ccccc1-[n+]1sc(Nc2ccccc2)nc1-c1ccccc1` [Compound 28], the 50% inhibitory concentration (IC50) in assay [1] stood at 68 nM. Moreover, the activation at 0.05 µM in assay [3] amounted to 25%.
On to `COc1ccccc1-[n+]1sc(Nc2cccnc2)nc1-c1ccccc1` [Compound 73], for which the IC50 in assay [1] was 725 nM.
For the molecule `COc1ccc(-c2nc(Nc3ccccc3)s[n+]2-c2ccc(OC)cc2)cc1` [Compound 57], the “IC50 MC-4 (nM) (SPA)” value in assay [1] was “inactive”. For the same molecule, in assay [2], the activation at 0.05 µM was 9%.
`COc1ccc(Nc2nc(-c3ccccc3OC)[n+](-c3ccccc3OC)s2)cc1` [Compound 75] showed an IC50 in assay [1] of 103 nM.
In turn, `COc1ccccc1-[n+]1sc(Nc2ccccc2)nc1-c1ccc(C)cc1` [Compound 65] returned an IC50 in assay [1] of 114 nM.
In assay [1], `COc1ccccc1-c1nc(Nc2cccnc2)s[n+]1-c1ccccc1OC` [Compound 81] had a 50% inhibitory concentration (IC50) of 672 nM.
`COc1ccc(-[n+]2sc(Nc3ccccc3OC)nc2-c2ccccc2)cc1` [Compound 37] displayed an IC50 in assay [1] of 72 nM. The molecule also had an activation at 0.05 µM in assay [3] of 26%.

One may read the IC50 as the concentration that gives 50% inhibition.
